Experimental data published in ChEMBL document CHEMBL3431459, “Roche carnitine palmitoyltransferase modulator screening data (supplementary data associated with the publication CHEMBL2216752)”.
≈ marks a conversion by molar mass, not a printed value.

How the values were obtained:
[1] = biological target: T1, Carnitine O-palmitoyltransferase 1, muscle isoform (Homo sapiens, UniProt Q92523); experiment: SUPPLEMENTARY: Inhibition of Carnitine palmitoyltransferase 1, muscle isoform; design: species or system Muscle tissue
T1 sequence (Q92523 whole entry): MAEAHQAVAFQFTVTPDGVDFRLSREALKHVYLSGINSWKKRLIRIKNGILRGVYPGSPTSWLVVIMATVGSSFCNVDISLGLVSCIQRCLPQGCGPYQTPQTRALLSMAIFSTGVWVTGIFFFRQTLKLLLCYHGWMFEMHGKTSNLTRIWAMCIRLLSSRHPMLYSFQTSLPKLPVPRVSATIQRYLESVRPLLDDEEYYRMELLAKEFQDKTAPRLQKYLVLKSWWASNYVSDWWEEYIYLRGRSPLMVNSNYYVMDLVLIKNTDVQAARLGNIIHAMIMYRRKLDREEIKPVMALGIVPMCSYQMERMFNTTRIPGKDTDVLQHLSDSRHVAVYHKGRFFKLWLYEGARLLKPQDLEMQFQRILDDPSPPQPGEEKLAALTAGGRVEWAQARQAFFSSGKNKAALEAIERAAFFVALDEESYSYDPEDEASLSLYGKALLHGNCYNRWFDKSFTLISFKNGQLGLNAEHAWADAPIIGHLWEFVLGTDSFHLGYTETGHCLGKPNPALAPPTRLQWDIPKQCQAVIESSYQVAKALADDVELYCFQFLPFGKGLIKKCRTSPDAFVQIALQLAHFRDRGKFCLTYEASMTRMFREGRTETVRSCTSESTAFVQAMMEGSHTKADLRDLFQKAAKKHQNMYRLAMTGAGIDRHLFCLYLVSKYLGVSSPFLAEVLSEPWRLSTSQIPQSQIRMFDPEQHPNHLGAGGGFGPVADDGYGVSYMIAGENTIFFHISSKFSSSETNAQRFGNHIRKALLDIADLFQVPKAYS

[2] = biological target: T2, Carnitine O-palmitoyltransferase 1, liver isoform (Rattus norvegicus, UniProt P32198); experiment: (§1) SUPPLEMENTARY: Inhibition of Carnitine palmitoyltransferase 1, liver isoform
T2 sequence (P32198 whole entry): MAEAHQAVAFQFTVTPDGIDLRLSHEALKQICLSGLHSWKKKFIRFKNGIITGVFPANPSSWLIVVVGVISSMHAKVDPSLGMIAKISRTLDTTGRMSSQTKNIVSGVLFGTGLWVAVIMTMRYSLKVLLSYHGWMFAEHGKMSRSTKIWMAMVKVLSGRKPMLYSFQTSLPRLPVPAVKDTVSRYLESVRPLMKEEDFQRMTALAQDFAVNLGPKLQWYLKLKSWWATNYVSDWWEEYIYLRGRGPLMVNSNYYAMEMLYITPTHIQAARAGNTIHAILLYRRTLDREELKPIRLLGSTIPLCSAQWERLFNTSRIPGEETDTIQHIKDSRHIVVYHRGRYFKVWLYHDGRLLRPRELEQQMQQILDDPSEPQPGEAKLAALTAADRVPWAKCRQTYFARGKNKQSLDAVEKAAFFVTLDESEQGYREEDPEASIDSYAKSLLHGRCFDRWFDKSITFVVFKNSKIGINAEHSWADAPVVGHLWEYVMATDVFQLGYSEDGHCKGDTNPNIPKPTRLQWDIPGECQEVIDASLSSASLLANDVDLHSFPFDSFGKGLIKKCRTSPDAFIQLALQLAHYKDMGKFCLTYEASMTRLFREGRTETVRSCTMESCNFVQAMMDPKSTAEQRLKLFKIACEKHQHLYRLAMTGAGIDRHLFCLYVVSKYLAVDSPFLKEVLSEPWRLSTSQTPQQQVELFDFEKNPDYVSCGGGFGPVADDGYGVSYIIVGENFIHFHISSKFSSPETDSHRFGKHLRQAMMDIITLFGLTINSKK

[3] = SUPPLEMENTARY: Lyophilisation Solubility Assay (LYSA); format: physicochemical; details: read-out: Kinetic_solubility
[4] = SUPPLEMENTARY: Lipophilicity (log D) Determination by high-throughput shake-flask; format: physicochemical; details: octanol/water
[5] = SUPPLEMENTARY: PAMPA permeability assay; format: physicochemical; details: read-out: Permeability
[6] = biological target: T3, Carnitine O-palmitoyltransferase 2, mitochondrial (Homo sapiens, UniProt P23786); experiment: (§2) SUPPLEMENTARY: Inhibition of Carnitine palmitoyltransferase 2
T3 sequence (P23786 whole entry): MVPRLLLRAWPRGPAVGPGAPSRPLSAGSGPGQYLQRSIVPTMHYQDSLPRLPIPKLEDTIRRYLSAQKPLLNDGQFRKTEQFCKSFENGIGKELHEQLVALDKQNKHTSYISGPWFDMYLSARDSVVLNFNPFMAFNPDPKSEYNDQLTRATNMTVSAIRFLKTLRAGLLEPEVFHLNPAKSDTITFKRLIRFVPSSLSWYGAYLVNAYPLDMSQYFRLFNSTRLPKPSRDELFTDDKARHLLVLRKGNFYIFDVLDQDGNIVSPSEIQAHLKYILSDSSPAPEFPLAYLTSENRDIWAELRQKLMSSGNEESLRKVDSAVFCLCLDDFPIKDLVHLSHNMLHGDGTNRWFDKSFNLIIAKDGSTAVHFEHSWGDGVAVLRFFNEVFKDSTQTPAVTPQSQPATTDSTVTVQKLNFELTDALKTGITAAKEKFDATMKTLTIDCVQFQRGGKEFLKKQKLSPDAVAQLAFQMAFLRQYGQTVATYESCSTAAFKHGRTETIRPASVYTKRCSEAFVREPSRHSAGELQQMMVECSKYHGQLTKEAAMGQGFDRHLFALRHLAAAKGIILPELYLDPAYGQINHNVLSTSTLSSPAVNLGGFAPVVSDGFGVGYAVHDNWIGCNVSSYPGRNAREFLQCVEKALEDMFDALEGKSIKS

[7] = biological target: T4, Carnitine O-palmitoyltransferase 2, mitochondrial (Rattus norvegicus, UniProt P18886); experiment: as §2
T4 sequence (P18886 whole entry): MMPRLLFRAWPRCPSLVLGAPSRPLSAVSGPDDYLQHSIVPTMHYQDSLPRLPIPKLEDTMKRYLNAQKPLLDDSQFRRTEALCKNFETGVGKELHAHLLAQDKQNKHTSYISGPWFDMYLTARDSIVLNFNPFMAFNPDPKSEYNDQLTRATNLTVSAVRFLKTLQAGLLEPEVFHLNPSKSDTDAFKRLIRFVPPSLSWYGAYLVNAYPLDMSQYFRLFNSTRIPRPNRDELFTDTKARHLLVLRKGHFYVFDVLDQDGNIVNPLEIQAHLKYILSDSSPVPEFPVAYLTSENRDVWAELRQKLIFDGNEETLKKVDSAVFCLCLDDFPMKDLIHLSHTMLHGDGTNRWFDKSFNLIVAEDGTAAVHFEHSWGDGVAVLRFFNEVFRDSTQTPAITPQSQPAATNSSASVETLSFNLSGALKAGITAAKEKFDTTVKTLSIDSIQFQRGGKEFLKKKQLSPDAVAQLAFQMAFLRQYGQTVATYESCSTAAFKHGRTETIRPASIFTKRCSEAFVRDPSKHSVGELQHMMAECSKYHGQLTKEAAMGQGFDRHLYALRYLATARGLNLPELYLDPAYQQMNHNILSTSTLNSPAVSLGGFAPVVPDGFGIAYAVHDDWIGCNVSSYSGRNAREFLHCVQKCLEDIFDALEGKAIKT

[8] = biological target: T5, Carnitine O-palmitoyltransferase 1, liver isoform (Homo sapiens, UniProt P50416); experiment: as §1
T5 sequence (P50416 whole entry): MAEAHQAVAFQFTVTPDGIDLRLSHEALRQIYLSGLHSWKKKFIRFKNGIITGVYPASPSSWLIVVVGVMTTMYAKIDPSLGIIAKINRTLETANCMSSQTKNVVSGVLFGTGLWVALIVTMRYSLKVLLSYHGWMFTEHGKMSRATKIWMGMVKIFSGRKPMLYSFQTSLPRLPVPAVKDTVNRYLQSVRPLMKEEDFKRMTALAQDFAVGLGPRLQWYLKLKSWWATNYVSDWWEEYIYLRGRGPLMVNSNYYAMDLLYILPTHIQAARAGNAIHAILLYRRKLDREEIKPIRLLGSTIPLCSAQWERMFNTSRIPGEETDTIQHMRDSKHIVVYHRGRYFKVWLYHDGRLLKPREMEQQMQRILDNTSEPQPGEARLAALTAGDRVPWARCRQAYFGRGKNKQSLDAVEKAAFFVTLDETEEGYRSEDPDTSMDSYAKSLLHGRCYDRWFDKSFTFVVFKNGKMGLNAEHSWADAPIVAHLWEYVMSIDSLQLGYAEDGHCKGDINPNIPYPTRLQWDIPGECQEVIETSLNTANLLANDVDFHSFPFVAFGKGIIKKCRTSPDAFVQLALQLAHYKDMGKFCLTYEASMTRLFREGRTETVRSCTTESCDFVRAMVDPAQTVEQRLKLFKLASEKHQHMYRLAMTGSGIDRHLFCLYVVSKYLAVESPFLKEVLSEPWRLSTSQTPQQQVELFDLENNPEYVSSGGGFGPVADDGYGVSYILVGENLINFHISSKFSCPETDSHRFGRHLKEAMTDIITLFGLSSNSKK

SMILES | IC50 [1] | IC50 [2] | solubility kinetic [3] | logD [4] | Papp [5] | IC50 [6] | IC50 [7] | IC50 [8]
O=C(COc1ccccc1)N1CCCC[C@@H]1c1nc(-c2ccccc2)cs1 | > 100 µM | 0.306 µM | < 1 µg/mL | 3.8 | 1.48 ×10⁻⁶ cm/s | > 100 µM | > 100 µM | 
O=C(O)c1ccc(-c2csc([C@H]3CCCCN3C(=O)COc3ccccc3)n2)cc1 | 29 µM | 0.496 µM | > 563 µg/mL | 1.09 | 5.18 ×10⁻⁶ cm/s | 10.6 µM | 42.1 µM | 
O=C(O)c1cccc(-c2csc([C@H]3CCCCN3C(=O)COc3ccccc3)n2)c1 | > 100 µM | 0.159 µM | 344 µg/mL (≈ 814 µM) | 1.06 | 5.06 ×10⁻⁶ cm/s | 31.8 µM | 78.6 µM | 
O=C(COc1ccccc1)N1CCCC[C@@H]1c1nc(-c2cccnc2)cs1 | 71.5 µM | 0.214 µM | 37 µg/mL (≈ 97.5 µM) | 3.15 | 3.8 ×10⁻⁶ cm/s | 16.7 µM | 32.8 µM | 
O=C(COc1ccccc1)N1CCCC[C@@H]1c1nc(-c2ccncc2)cs1 | > 100 µM | 0.265 µM | 39 µg/mL (≈ 103 µM) | 2.95 | 3.84 ×10⁻⁶ cm/s | 8.32 µM | 31.6 µM | 
COc1ccc(Cl)cc1S(=O)(=O)c1nn(CC(=O)O)c2ccc(C(=O)Nc3ccccc3)cc12 | 39.3 µM | 0.0244 µM | 374 µg/mL (≈ 748 µM) | 0.31 |  | > 100 µM | > 100 µM | 0.0384 µM

More lines, now with the values ahead:

IC50 [1] | IC50 [2] | solubility kinetic [3] | logD [4] | Papp [5] | IC50 [6] | IC50 [7] | IC50 [8] | SMILES
> 100 µM | 0.128 µM | 24 µg/mL (≈ 63.2 µM) | 3.37 | 9.04 ×10⁻⁶ cm/s |  |  |  | O=C(COc1ccccc1)N1CCCC[C@@H]1c1nc(-c2ccccn2)cs1
0.989 µM | 0.0663 µM | 26 µg/mL (≈ 51.5 µM) | 0.38 | 1.67 ×10⁻⁶ cm/s | 1.37 µM | 4.86 µM |  | COc1ccc(Cl)cc1S(=O)(=O)N1CCc2ccc(C(=O)Nc3ccc(C(=O)O)c(F)c3)cc21
2.08 µM | 0.0947 µM | 30 µg/mL (≈ 59.2 µM) | 0.35 | 1.92 ×10⁻⁶ cm/s | 3.45 µM | 20.5 µM |  | COc1ccc(Cl)cc1S(=O)(=O)N1COc2ccc(C(=O)Nc3ccc(C(=O)O)c(F)c3)cc21
4.5 µM | 0.0798 µM | 20 µg/mL (≈ 42.5 µM) | 0.48 | 3.65 ×10⁻⁶ cm/s | > 100 µM | > 100 µM |  | O=C(O)Cc1ccc(NC(=O)c2ccc3c(c2)N(S(=O)(=O)c2cccc(Cl)c2)CC3)cc1
0.145 µM |  |  | 1.79 | 0.77 ×10⁻⁶ cm/s | > 100 µM | > 100 µM | 0.55 µM | COc1ccc(Cl)cc1S(=O)(=O)N1CCCc2ccc(Oc3ccc(CC(=O)O)cc3)cc21
0.447 µM | 0.238 µM | 37 µg/mL (≈ 71.8 µM) | 0.62 | 3.07 ×10⁻⁶ cm/s | 98.4 µM | > 100 µM |  | COc1ccc(Cl)cc1S(=O)(=O)N1CCc2c(C)cc(C(=O)Nc3ccc(CC(=O)O)cc3)cc21
